Molecules are shown by their SMILES.

What all share (format): cell-based, bovine
For series [1], the system named is BAE cells. The series is described as follows: BAE cell proliferation assay (MTT, 72 h). As for the experimental part: BAE cells were from Cell Applications, San Diego, Calif. and BxPC-3, HT1080, LLC, PANC-1, MCF-7, HCT116 and K562 cells were from ATCC, Bethesda, Md. NB4 and MDCK2 cells were from Shane Supple (Kanematsu Laboratories, Royal Prince Alfred Hospital, Sydney, Australia) and P. Borst (The Netherlands Cancer Institute, Amsterdam, The Netherlands). BAE, HT1080, Panc-1, MCF-7, HCT116, MDCK2 and LLC cells were cultured in DMEM. NB4, K562 and BxPC-3 cells were cultured in RPMI medium. The cells were supplemented with 10% foetal calf serum (FBS), 2 mM L-glutamine, and 1 U·mL-1 penicillin/streptomycin. Cell culture plasticware was from Techno Plastic Products (Trasadingen, Switzerland). All other cell culture reagents were from Gibco (Gaithersburg, Md.).
Adherent cells were allowed to adhere overnight.

The test system of series [2] is BAE cells. Briefly: Accumulation of GSAO and CAO in BAE cells (ICPMS). On the procedure: Depending on the type of experiments, 1.6×10^6 or 7.5×10^5 BAE cells were seeded in petri dishes or 6-well-plates, respectively, and allowed to attach overnight. The medium was replaced and the cells were incubated for 30 min in the absence or presence of acivicin or 4H10. The cells were then incubated with 50 or 100 μM GSAO or CAO […] for 4 h. Cells were then washed twice with ice-cold PBS and lysed with 1 ml of 70% w/w nitric acid.

Series [3] deals with BAE cells. The series is described as follows: BAE cell proliferation assay, 24, 48 or 72 h (Example 2). On the procedure:
Bovine aortic endothelial (BAE) cells were from Cell Application (San Diego, Calif.). BAE cells were cultured in DMEM supplemented with 10% fetal calf serum, 2 mM L-glutamine, and 5 units per mL penicillin and streptomycin (Gibco, Gaithersburg, Md.). Cells were cultured at 37° C. in a 5% CO2, 95% air atmosphere. BAE cells were seeded in 96-well plates (5,000 cells per well) in 0.2 ml of culture medium. After 24 h of growth, the medium was replaced with fresh culture medium supplemented with GSAO, CAO or 4H10 and cells were cultured for an additional 24, 48 or 72 h. Viable attached cells were determined using the tetrazolium salt MTT (Sigma, St. Louis, Mo.) according to the manufacturer's protocol. Results were expressed as percentage of untreated controls.

Series [4] concerns the target T1, multidrug resistance associated protein 1 (MRP-1) (Bos taurus, UniProt Q8HXQ5).
T1 construct: host or cells: BAE (bovine aortic endothelial) cells
The series is described as follows: Accumulation in BAE cells with MRP-1 inhibitor 4H10. On the procedure:
FIG. 16. […] A. CAO accumulates in cells at a much faster rate than GSAO. BAE cells were incubated with 50 μM GSAO or CAO for 4 h. Cellular arsenic levels were determined by ICPMS. The rates of accumulation are GSAO and CAO are 0.03 and 0.20 nmol As atoms per 10^6 cells, respectively. Data points are the mean±SD of three determinations. The results are representative of two experiments. […] BAE cells pretreated for 30 min with 10 μM of the MRP-1 inhibitor 4H10 were incubated with 50 μM GSAO or CAO for 2 h. Cellular arsenic levels were determined by ICPMS. Data points are the mean±SD of three determinations. The results are representative of two experiments. C. GSAO and CAO IC50 values for proliferation arrest of endothelial cells. BAE cells were incubated with 0.8-100 μM GSAO or CAO for 24, 48 or 72 h. Cell viability was determined using MTT. Results are expressed as percentage of control. Values are mean±SD of triplicate determinations. Results are representative of three experiments.
Depending on the type of experiments, 1.6×10^6 or 7.5×10^5 BAE cells were seeded in petri dishes or 6-well-plates, respectively, and allowed to attach overnight. The medium was replaced and the cells were incubated for 30 min in the absence or presence of acivicin or 4H10. The cells were then incubated with 50 or 100 μM GSAO or CAO for 30 mM for 4 h. […]

T1 sequence (Q8HXQ5 whole entry): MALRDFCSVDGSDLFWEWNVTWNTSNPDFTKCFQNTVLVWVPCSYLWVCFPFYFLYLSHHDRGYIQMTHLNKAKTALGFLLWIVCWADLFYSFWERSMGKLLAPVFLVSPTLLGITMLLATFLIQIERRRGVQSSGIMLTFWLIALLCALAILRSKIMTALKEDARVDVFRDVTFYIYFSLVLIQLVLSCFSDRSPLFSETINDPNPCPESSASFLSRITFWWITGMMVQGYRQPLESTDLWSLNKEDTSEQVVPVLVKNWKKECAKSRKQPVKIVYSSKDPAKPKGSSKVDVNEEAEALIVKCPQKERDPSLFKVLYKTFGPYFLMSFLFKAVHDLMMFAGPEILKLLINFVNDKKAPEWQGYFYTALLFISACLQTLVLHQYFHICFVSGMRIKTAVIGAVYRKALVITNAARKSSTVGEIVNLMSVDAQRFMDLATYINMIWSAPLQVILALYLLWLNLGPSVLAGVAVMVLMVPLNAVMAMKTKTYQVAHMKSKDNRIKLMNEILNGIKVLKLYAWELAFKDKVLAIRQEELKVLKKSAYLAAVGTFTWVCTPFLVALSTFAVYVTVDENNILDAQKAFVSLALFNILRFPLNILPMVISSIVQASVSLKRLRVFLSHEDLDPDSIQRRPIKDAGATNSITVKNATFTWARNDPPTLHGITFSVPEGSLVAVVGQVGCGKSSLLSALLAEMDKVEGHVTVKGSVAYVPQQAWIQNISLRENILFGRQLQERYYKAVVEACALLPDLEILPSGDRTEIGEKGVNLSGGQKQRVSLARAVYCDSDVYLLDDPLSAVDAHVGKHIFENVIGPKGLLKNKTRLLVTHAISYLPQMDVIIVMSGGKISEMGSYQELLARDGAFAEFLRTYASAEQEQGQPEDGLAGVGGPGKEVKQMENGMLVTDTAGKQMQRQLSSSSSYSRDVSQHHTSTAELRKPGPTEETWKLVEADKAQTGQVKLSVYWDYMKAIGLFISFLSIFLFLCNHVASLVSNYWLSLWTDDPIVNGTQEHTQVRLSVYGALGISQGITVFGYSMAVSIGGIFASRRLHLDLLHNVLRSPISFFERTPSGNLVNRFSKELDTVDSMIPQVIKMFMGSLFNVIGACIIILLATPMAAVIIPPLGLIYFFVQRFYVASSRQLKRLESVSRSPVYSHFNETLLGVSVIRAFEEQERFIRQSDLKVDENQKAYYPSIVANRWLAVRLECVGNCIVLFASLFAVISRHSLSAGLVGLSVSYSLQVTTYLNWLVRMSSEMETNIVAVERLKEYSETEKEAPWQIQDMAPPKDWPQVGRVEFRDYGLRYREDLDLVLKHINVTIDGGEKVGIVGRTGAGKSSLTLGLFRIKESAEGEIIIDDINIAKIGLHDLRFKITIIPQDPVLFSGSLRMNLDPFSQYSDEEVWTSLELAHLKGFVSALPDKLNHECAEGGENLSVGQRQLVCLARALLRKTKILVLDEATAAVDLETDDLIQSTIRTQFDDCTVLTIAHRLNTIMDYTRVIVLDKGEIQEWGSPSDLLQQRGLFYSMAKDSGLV

With `CC(C)(SCC(=O)Nc1ccc([As](=O)(O)O)cc1)[C@@H](N)C(=O)O` [(S)-Penicillamine-arsenonic acid, reference compound], the “effect on proliferation of BAE cells” value in the series on BAE cells [1] is given as “no effect on proliferation”.
For the molecule `NC(CSCC(=O)Nc1ccc([As](O)O)cc1)C(=O)O` (stereo not drawn) [CAO, 4-(N—(S-cysteinylacetyl)amino)-phenylarsinous acid], the “rate of accumulation in endothelial cells, fold faster than GSAO” value in the series with BAE cells [2] was roughly 8 fold. Moreover, the rate of accumulation with BAE cells [2] (50 μM, 4 h) was 0.20 nmol As atoms per 10^6 cells. Further, the “anti-proliferative activity compared to GSAO” value in the series with BAE cells [3] is reported as “greater anti-proliferative activity than GSAO”. Also, in series [4], the “export by multidrug resistance associated protein 1” value was “exported from cells by the multidrug resistance associated protein 1”. The “increase of cellular accumulation when MRP-1 was inhibited” value in series [4] (10 μM 4H10 30 min, then 50 μM compound 2 h) was roughly 3 fold.

The values are drawn from patent US9765101B2, “Organo-arsenoxide compounds and use thereof” (NewSouth Innovations Pty Limited, priority 2006, dated 2017).
